Laboratory results published in US9839642B2, “Beta-tetrazolyl-propionic acids as metallo-beta-lactamase inhibitors” (priority 2014, dated 2017).
Like-named read-outs stand apart in the source and are kept apart here.

Columns and labels:
NDM-1 = NDM-1 (Klebsiella pneumoniae, UniProt C7C422); assay: Enzyme activity: determination of IC50, fluorescence assay with CCF2-FA substrate; type: biochemical; settings: CCF2-FA 1.25 μM, 2 hours at 25° C., read-out: NDM1 IC50
Summary of the method: (§1)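 Final enzyme levels differed by target: 1 pM NDM-1, 2 pM IMP-1, 30 pM VIM-1. Each was incubated 2 hours at 25° C with test compound and 1.25 μM CCF2-FA, and 460 nm fluorescence (405 nm excitation) was fitted by 4-parameter curve to obtain IC50.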

VIM-1 = VIM-1 (Pseudomonas aeruginosa, UniProt A0A0F7KYQ8); assay: as above; type: biochemical; settings: CCF2-FA 1.25 μM, 2 hours at 25° C., read-out: VIM1 IC50
Summary of the method: as §1

IMP-1 = IMP-1 (Serratia marcescens, UniProt P52699); assay: as above; type: biochemical; settings: CCF2-FA 1.25 μM, 2 hours at 25° C., read-out: IMP1 IC50
IMP-1, sequence (P52699 19-246, looked up, species assumed): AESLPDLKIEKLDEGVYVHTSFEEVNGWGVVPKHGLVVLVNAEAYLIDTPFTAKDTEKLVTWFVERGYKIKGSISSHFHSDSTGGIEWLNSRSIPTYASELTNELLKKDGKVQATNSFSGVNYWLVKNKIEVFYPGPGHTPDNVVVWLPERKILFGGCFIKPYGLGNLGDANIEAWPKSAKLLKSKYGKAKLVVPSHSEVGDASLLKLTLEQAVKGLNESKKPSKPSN
Summary of the method: as §1

[1] = tested on: Klebsiella pneumoniae expressing VIM-1 (IHMA599644); assay: Antibiotic potentiation activity: synergistic concentration (MITC95) with imipenem, growth by OD600; type: cell-based
Summary of the method: (§2)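 Colonies from overnight agar plates (35 °C) were suspended in saline and diluted 1:100 into 1.1× CAMHB. Inhibitor (final 200 μM to 0.195 μM) was combined with imipenem at 1 or 4 μg/ml, incubated 22–24 h at 35 °C, and absorbance read; MITC95 is the lowest inhibitor concentration giving 95% growth inhibition.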

[2] = tested on: Escherichia coli expressing NDM-1 (CLB30016); assay: as above; type: cell-based
Summary of the method: as §2

[3] = tested on: Serratia marcescens expressing IMP-1 (CL5741); assay: as above; type: cell-based
Summary of the method: as §2

[4] = K. pneumoniae IHMA599644 (VIM-1), 95% inhibition of growth
[5] = E. coli CLB30016 (NDM-1), 95% inhibition of growth
[6] = S. marcescens CL5741 (IMP-1), 95% inhibition of growth
[7] = 95% inhibition of bacterial growth, strain IHMA599644
[8] = 95% inhibition of bacterial growth, strain CLB30016
[9] = 95% inhibition of bacterial growth, strain CL5741

NDM-1, sequence (C7C422 29-270, looked up, species assumed): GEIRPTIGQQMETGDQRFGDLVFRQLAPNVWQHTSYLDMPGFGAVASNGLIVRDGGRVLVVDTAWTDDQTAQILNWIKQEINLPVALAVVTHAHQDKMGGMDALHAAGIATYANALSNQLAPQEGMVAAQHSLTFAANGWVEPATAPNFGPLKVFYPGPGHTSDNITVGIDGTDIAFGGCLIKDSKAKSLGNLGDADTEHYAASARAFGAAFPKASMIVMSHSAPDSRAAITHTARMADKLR

Compound	IC50 (NDM-1; NDM-1 enzyme 1 pM) [nM]	IC50 (VIM-1; VIM-1 enzyme 30 pM) [nM]	IC50 (IMP-1; IMP-1 enzyme 2 pM) [nM]	VIM1 KP599644 MITC95 [1, 4] [µM]	NDM1 EC30016 MITC95 [2, 5] [µM]	IMP1 SM5741 MITC95 [3, 6] [µM]	IC50 (NDM-1; enzyme 1 pM) [nM]	IC50 (VIM-1; enzyme 30 pM) [nM]	IC50 (IMP-1; enzyme 2 pM) [nM]	VIM1 KP599644 MITC95 [1, 7] [µM]	NDM1 EC30016 MITC95 [2, 8] [µM]	IMP1 SM5741 MITC95 [3, 9] [µM]
CCC[C@H](C(=O)O)[C@H](C[C@@H](C)c1ccccc1)c1nnn[nH]1 [Example 265, (2S,3S,5R)-5-phenyl-2-propyl-3-(1H-tetrazol-5-yl)hexanoic acid]	130	24	1800	75	18.8	50	–	–	–	–	–	–
CC(C)C[C@H](C(=O)O)[C@H](Cc1ccc(N2CC(C)(CN)C2)nc1)c1nnn[nH]1 [Example 325, (2S)-2-[(1S)-2-{6-[3-(aminomethyl)-3-methylazetidin-1-yl]pyridin-3-yl}-1-(1H-tetrazol-5-yl)ethyl]-4-methylpentanoic acid]	1100	36	4400	75	12.5	75	–	–	–	–	–	–
CCC[C@H](C(=O)O)[C@H](Cc1cccnc1Cl)c1nnn[nH]1 [Example 87, (2S)-2-[(1S)-2-(2-chloropyridin-3-yl)-1-(1H-tetrazol-5-yl)ethyl]pentanoic acid]	–	–	–	–	–	–	300	2.3	6600	25	12.5	>200
CCC[C@H](C(=O)O)[C@H](Cc1ccccc1C1=CCC(N)CC1)c1nn[nH]n1 (stereo partly drawn) [Example 449, 2′-((2S,3S)-3-carboxy-2-(2H-tetrazol-5-yl)hexyl)-2,3,4,5-tetrahydro-[1,1′-biphenyl]-4-aminium 2,2,2-trifluoroacetate]	72.9	87.2	8860	25	9.375	200	–	–	–	–	–	–
CC(C)[C@H](C(=O)O)[C@H](Cc1ccc(N)nc1)c1nnn[nH]1 [Example 121, (2S,3S)-4-(6-aminopyridin-3-yl)-2-isopropyl-3-(1H-tetrazol-5-yl)butanoic acid]	–	–	–	–	–	–	120	35	6000	5.5	0.21	37
CC(C)C[C@H](C(=O)O)[C@H](Cc1ccc(-c2ccc(N)nc2)nc1)c1nn[nH]n1 [Example 176, (2S)-2-[(1S)-2-(6′-amino-2,3′-bipyridin-5-yl)-1-(2H-tetrazol-5-yl)ethyl]-4-methylpentanoic acid]	–	–	–	–	–	–	25	5.7	150	25	16	6.2
CCC[C@H](C(=O)O)[C@H](Cc1cccc(-c2ccc(C3CCNCC3)cc2)c1)c1nn[nH]n1 [Example 350, (2S)-2-[(1S)-2-(4′-piperidin-4-ylbiphenyl-3-yl)-1-(2H-tetrazol-5-yl)ethyl]pentanoic acid]	26	3	380	25	25	6.2	–	–	–	–	–	–
CC(C)C[C@H](C(=O)O)[C@H](Cc1ccc(COCC2CCNCC2)c(F)c1)c1nn[nH]n1.O=C(O)C(F)(F)F [Example 442, 5-((2S,3S)-3-carboxy-1-(3-fluoro-4-((piperidin-4-ylmethoxy)methyl)phenyl)-5-methylhexan-2-yl)-2H-tetrazol-3-ium 2,2,2-trifluoroacetate]	74.7	8.73	110	25	12.5	6.25	–	–	–	–	–	–
CCC[C@H](C(=O)O)[C@H](Cc1ccc(-c2ccc(C3(O)CNC3)cc2)cn1)c1nnn[nH]1 [Example 166, (2S)-2-[(1S)-2-{5-[4-(3-hydroxyazetidin-3-yl)phenyl]pyridin-2-yl}-1-(1H-tetrazol-5-yl)ethyl]pentanoic acid]	–	–	–	–	–	–	500	170	9300	38	9.4	100
CC[C@H](C)[C@H](C(=O)O)[C@H](Cc1ccc(C2CCNC2)cc1)c1nnn[nH]1 (stereo partly drawn) [Example 81, (2S,3S)-3-methyl-2-((1S)-2-(4-(pyrrolidin-3-yl)phenyl)-1-(1H-tetrazol-5-yl)ethyl)pentanoic acid]	–	–	–	–	–	–	46	4.4	65	6.2	2.3	2.3
O=C(O)[C@@H](CCCC1CCNCC1)[C@H](Cc1ccc(C2=CCNC2)cc1)c1nnn[nH]1 [Example 433, (S)-2-((S)-2-(4-(2,5-dihydro-1H-pyrrol-3-yl)phenyl)-1-(1H-tetrazol-5-yl)ethyl)-5-(piperidin-4-yl)pentanoic acid compound with 222,-trifluroacetic acid (1:2)]	87	10.1	2000	12.5	12.5	100	–	–	–	–	–	–
CNC(=O)C1CCN(c2ccc(C[C@H](c3nnn[nH]3)[C@H](CC(C)C)C(=O)O)cn2)C1 (stereo partly drawn) [Example 305, (2S)-4-methyl-2-[(1S)-2-{6-[3-(methylcarbamoyl)pyrrolidin-1-yl]pyridin-3-yl}-1-(1H-tetrazol-5-yl)ethyl]pentanoic acid]	120	12	250	25	2.3	6.2	–	–	–	–	–	–
CC(C)C[C@H](C(=O)O)[C@H](Cc1ccc(Oc2ccccc2)nc1)c1nn[nH]n1 [Example 381, (2S)-4-methyl-2-[(1S)-2-(6-phenoxypyridin-3-yl)-1-(2H-tetrazol-5-yl)ethyl]pentanoic acid]	24	4.1	86	75	9.4	4.7	–	–	–	–	–	–
CC(C)C[C@H](C(=O)O)[C@H](Cc1ccc(N2CC(O)(C(F)(F)F)C2)nc1)c1nnn[nH]1 [Example 338, (2S)-2-[(1S)-2-{6-[3-hydroxy-3-(trifluoromethyl)azetidin-1-yl]pyridin-3-yl}-1-(1H-tetrazol-5-yl)ethyl]-4-methylpentanoic acid]	110	38	200	150	31	9.4	–	–	–	–	–	–
CCC[C@H](C(=O)O)[C@H](Cc1ccccc1-c1ccccc1)c1nn[nH]n1 [Example 393, (2S)-2-[(1S)-2-biphenyl-2-yl-1-(2H-tetrazol-5-yl)ethyl]pentanoic acid]	3.2	4.5	1000	75	4.7	25	–	–	–	–	–	–
CCC[C@H](C(=O)O)[C@H](Cc1cccc(N2CC[C@H](N)C2)c1)c1nn[nH]n1 [Example 369, (2S)-2-[(1S)-2-{3-[(3S)-3-aminopyrrolidin-1-yl]phenyl}-1-(2H-tetrazol-5-yl)ethyl]pentanoic acid]	150	3.2	2300	12.5	12.5	50	–	–	–	–	–	–
CCC[C@H](C(=O)O)[C@H](Cc1ccc(C(=O)N2CCNCC2)cc1)c1nnn[nH]1 [Example 275, (2S)-2-[(1S)-2-[4-(piperazin-1-ylcarbonyl)phenyl]-1-(1H-tetrazol-5-yl)ethyl]pentanoic acid]	39	41	520	38	9.4	25	–	–	–	–	–	–
CC(C)C[C@H](C(=O)O)[C@H](Cc1ccc(C#N)cc1)c1nnn[nH]1 [Example 42]	–	–	–	–	–	–	74	1.4	190	37.5	18.8	12.5
CCC[C@@H](C(=O)O)[C@H](Cc1ccc(-c2ccc(N3CCNCC3)nc2)cc1)c1nnn[nH]1 [Example 57, (2R)-2-[(1S)-2-[4-(6-piperazin-1-ylpyridin-3-yl)phenyl]-1-(1H-tetrazol-5-yl)ethyl]pentanoic acid]	–	–	–	–	–	–	650	170	2800	>200	200	150
